This note sets out measurements from patent publication US11351173B2, “Substituted pyrrolo[1,2-a]pyrimidines and their use in the treatment of medical disorders” (Bial—R&D Investments, S.A., priority 2014, dated 2022).

In brackets after ≈: the same amount, converted by molar mass.

Series [1] can be described thus: Compound solubility in water. The following applies: water; for solubility: Compound Solubility in Water.
Series [2] addresses T1, glucocerebrosidase (Gcase) (Homo sapiens, UniProt P04062).
T1 construct: micellar solution containing 10 nM GCase and 100 nM saposin C
T1 sequence (P04062 40-536): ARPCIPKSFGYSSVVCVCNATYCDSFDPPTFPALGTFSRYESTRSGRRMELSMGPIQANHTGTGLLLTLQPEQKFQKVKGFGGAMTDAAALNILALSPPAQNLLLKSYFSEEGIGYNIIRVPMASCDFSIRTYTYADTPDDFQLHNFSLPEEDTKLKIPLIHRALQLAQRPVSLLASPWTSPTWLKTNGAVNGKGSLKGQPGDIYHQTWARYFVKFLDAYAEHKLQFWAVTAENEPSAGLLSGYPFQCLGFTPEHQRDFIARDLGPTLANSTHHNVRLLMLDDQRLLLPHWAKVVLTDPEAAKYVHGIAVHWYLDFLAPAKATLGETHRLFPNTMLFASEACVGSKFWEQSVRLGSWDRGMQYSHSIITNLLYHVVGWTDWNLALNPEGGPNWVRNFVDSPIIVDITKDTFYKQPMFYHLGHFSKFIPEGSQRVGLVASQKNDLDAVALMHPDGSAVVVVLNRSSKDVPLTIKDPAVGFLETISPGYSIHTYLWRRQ
The series can be described thus: Glucocerebrosidase (Gcase) activation assay, 4-methylumbelliferyl-beta-D-glucopyranoside substrate, fluorescence readout. The following applies: for activation at 0.1 µM / Percent Gcase Activation, 0.1 μM Test Compound: test compound at 0.1 μM; for activation at 0.1 µM: read-out: Percent Gcase Activation, 0.1 μM Test Compound; for activation at 1 µM / Percent Gcase Activation, 1 μM Test Compound: test compound at 1.0 μM; for activation at 1 µM: read-out: Percent Gcase Activation, 1 μM Test Compound. The format is biochemical. As to the method:
The ability of exemplary compounds to activate glucocerebrosidase (Gcase) was measured.
A 484 μL aliquot of a 1.0 mg/mL solution of phosphatidylserine (PS) (Sigma P7769) in chloroform was evaporated under a stream of nitrogen for 1 hour. The lipid film was dissolved over 4 minutes of vigorous vortexing in 40 mL of 176 mM K2HPO4/50 mM citric acid (pH 4.7) containing 7.5 μL of triton X-100, resulting in a mixed micellar preparation with a composition of 0.32 mM triton and 0.37 mol % PS. 4-Methylumbelliferyl-beta-D-glucopyranoside (ACROS-337025000) was dissolved in the micellar solution to a final concentration of 2 mM for use as the reaction substrate.
Test compounds were diluted to the desired concentrations with dimethylsulfoxide (DMSO) from 10 mM stocks, and 0.41 μL of the DMSO compound mixture was added to 100 μL of micellar solution containing 10 nM GCase and 100 nM saposin C (Enzo ALX-201-262-C050). Pre-incubation was allowed to occur for 30 minutes at room temperature, after which the reaction was initiated by combining 25 μL of substrate solution with 25 μL of compound/GCase/saposin mixture. The reaction proceeded for 15 minutes at room temperature and was stopped by adding 150 μL of 1M glycine, pH 12.5. The endpoint of the reaction was monitored by measuring fluorescence intensity (excitation: 365 nm; emission: 440 nm) on a SpectraMax i3 instrument (Molecular Devices). Test compounds were screened at 1.0 and 0.1 μM final concentration, and subsequent 8-point dose response curves were obtained using 3-fold dilutions from a maximum final concentration of 5 μM.

Compound `Cc1cc(C)n2ccc(C(=O)Nc3ccc(-c4cocn4)cc3)c2n1` [III-1] gave a solubility in series [1] of less than 1.5 µg/mL. Besides, in series [2], the activation at 0.1 µM was greater than 20% and the activation at 1 µM is greater than 60%.
`C#Cc1ccc(NC(=O)c2ccn3c(C)cc(C)nc23)cc1` [III-2] had a solubility in series [1] of less than 1.5 µg/mL. In series [2], the activation at 0.1 µM is greater than 20% and the activation at 1 µM was greater than 60%.
For `Cc1cc(C)n2ccc(C(=O)Nc3ccc(-c4cocn4)nc3)c2n1` [III-3], in that order: less than 1.5 µg/mL, less than 10% and 30 to 60%.
With `COCC#Cc1ccc(NC(=O)c2ccn3c(C)cc(C)nc23)cc1` [III-4], the solubility in series [1] was less than 1.5 µg/mL. Moreover, in series [2], the activation at 0.1 µM is greater than 20% and the activation at 1 µM was greater than 60%.
The compound `C#Cc1ccc(NC(=O)c2ccn3c(C)cc(C)nc23)cn1` [III-5] returned a solubility in series [1] of 10.1 µg/mL (≈ 34.8 µM). Also, in series [2], the activation at 0.1 µM was less than 10% and the activation at 1 µM is greater than 60%.
In the same order, the values of `CCCCCOc1ccc(NC(=O)c2ccn3c(C)cc(C)nc23)cc1` [III-6] are less than 0.1 µg/mL, greater than 20% and greater than 60%.
For `Cc1cc(C)n2ccc(C(=O)Nc3ccc(-c4ncco4)cc3)c2n1` [III-7], in that order: 0.06 µg/mL (≈ 0.181 µM), greater than 20% and greater than 60%.
In series [1], `Cc1cc(C)n2ccc(C(=O)Nc3ccc(-c4cccs4)nc3)c2n1` [III-8] returned a solubility of 0.01 µg/mL (≈ 0.0287 µM). In addition, in series [2], the activation at 0.1 µM was greater than 20% and the activation at 1 µM is greater than 60%.
In the case of `Cc1cc(C)n2ccc(C(=O)Nc3ccc(-c4ccco4)cc3)c2n1` [III-9], in series [1], the “Compound Solubility in Water” value was less than 0.1 µg/mL. Moreover, in series [2], the “Percent Gcase Activation, 0.1 μM Test Compound” value is reported as “*** (greater than 20% Gcase activation)” and the “Percent Gcase Activation, 1 μM Test Compound” value is listed as “+++ (Gcase activation greater than 60%)”.
For `Cc1cc(C)n2ccc(C(=O)Nc3ccc(-c4ccco4)nc3)c2n1` [III-10], in series [1], the concentration in solution (solubility) was 0.3 µg/mL (≈ 0.903 µM). In series [2], the activation at 0.1 µM was greater than 20% and the activation at 1 µM was greater than 60%.
For `Cc1cc(C)n2ccc(C(=O)Nc3ccc(-c4ccncc4)cc3)c2n1` [III-11], in that order: 0.01 µg/mL (≈ 0.0292 µM), 10 to 20% and 30 to 60%.
For `Cc1cc(C)n2ccc(C(=O)Nc3ccc(-c4cnn(C)c4)cc3)c2n1` [III-12], in that order: 0.06 µg/mL (≈ 0.174 µM), greater than 20% and 30 to 60%.
With `Cc1cc(C)n2ccc(C(=O)Nc3ccc4c(c3)CCC4)c2n1` [III-13], the “Compound Solubility in Water” value in series [1] was 0.06 µg/mL. For the same compound, in series [2], the “Percent Gcase Activation, 0.1 μM Test Compound” value is on record as “*** (greater than 20% Gcase activation)” and the “Percent Gcase Activation, 1 μM Test Compound” value was “+++ (Gcase activation greater than 60%)”.
In the same order, the values of `Cc1cc(C)n2ccc(C(=O)Nc3ccc(C)c(-c4ncco4)c3)c2n1` [III-14] are less than 1.5 µg/mL, “*** (greater than 20% Gcase activation)” and “+++ (Gcase activation greater than 60%)”.
Take `Cc1cc(C)n2ccc(C(=O)Nc3ccc(Cl)c(COc4cccnc4)c3)c2n1` [III-15]: the solubility in series [1] is less than 0.1 µg/mL. In addition, in series [2], the activation at 0.1 µM is greater than 20% and the activation at 1 µM is greater than 60%.
In the same order, the values of `Cc1cc(C)n2ccc(C(=O)Nc3ccc4c(c3)OCO4)c2n1` [III-16] are 0.2 µg/mL (≈ 0.647 µM), greater than 20% and greater than 60%.
For `Cc1cc(C)n2ccc(C(=O)Nc3ccc(N4CCCCC4)cc3)c2n1` [III-17], in that order: less than 0.1 µg/mL, less than 10% and 30 to 60%.
For `COCC#Cc1ccc(NC(=O)c2ccn3c(C)cc(C)nc23)cn1` [III-18], in that order: 0.7 µg/mL (≈ 2.09 µM), less than 10% and 30 to 60%.
`Cc1cc(C)n2ccc(C(=O)Nc3ccc(OCCCCN)cc3)c2n1` [III-19] displayed a solubility in series [1] of 17.2 µg/mL (≈ 48.8 µM). For the same compound, in series [2], the activation at 0.1 µM is less than 10% and the activation at 1 µM is less than 30%.
For `CNCCCCOc1ccc(NC(=O)c2ccn3c(C)cc(C)nc23)cc1` [III-20], in that order: 20.8 µg/mL (≈ 56.8 µM), less than 10% and less than 30%.
In the same order, the values of `Cc1cc(C)n2ccc(C(=O)Nc3ccc(-c4cnn(C)c4)nc3)c2n1` [III-21] are 0.2 µg/mL (≈ 0.577 µM), less than 10% and less than 30%.
In the same order, the values of `CCCCCOC1CCC(NC(=O)c2ccn3c(C)cc(C)nc23)CC1` (centres unmarked) [III-22] are 0.5 µg/mL (≈ 1.4 µM), greater than 20% and greater than 60%.
`O=C(Nc1ccc(-c2cocn2)cc1)c1ccn2c(C(F)F)cc(C(F)F)nc12` [III-23] displayed a solubility in series [1] of 0.06 µg/mL (≈ 0.148 µM). In series [2], the activation at 0.1 µM was greater than 20% and the activation at 1 µM was greater than 60%.
The compound `O=C(NC1CCCc2ccccc21)c1ccn2c(C(F)F)cc(C(F)F)nc12` (centres unmarked) [III-24] showed a solubility in series [1] of 0.2 µg/mL (≈ 0.511 µM). Also, in series [2], the activation at 0.1 µM is greater than 20% and the activation at 1 µM was greater than 60%.
For `COCc1cc(C(C)C)nc2c(C(=O)NC3(C)CCCc4ncncc43)ccn12` (centres unmarked) [III-31], in series [2], the activation at 0.1 µM is less than 10% and the activation at 1 µM was less than 30%.
As for `COCc1cc(C(C)C)n2ccc(C(=O)NC3(C)CCCc4ncncc43)c2n1` (centres unmarked) [III-32], in series [2], the activation at 0.1 µM was less than 10% and the activation at 1 µM was less than 30%.
In the same order, the values of `COc1cc(C)nc2c(C(=O)Nc3ccc(-c4cocn4)cc3)ccn12` [III-51] are 10 to 20% and less than 30%.
With `Cc1cc(C)n2ccc(C(=O)N[C@@H](C)c3ccccc3F)c2n1` [III-77], in series [2], the activation at 0.1 µM was greater than 20% and the activation at 1 µM was greater than 60%.
For `Cc1cc(C)n2ccc(C(=O)N[C@@H](C)c3ccc(F)cc3)c2n1` [III-78], in that order: greater than 20% and greater than 60%.
On to `Cc1cc(C)n2ccc(C(=O)NC(C)(C)c3ccccc3Cl)c2n1` [III-79], for which, in series [2], the activation at 0.1 µM lay within 10 to 20% and the activation at 1 µM is greater than 60%.
In the same order, the values of `Cc1cc(C)n2ccc(C(=O)Nc3ccc4c(c3)C(n3oc(C)cc3=O)CC4)c2n1` (centres unmarked) [III-97] are less than 10% and 30 to 60%.
In the same order, the values of `Cc1cc(C)n2ccc(C(=O)NC3CCC4(CCOCC4)CC3)c2n1` [III-140] are less than 10% and less than 30%.
For `Cc1cc(C)n2ccc(C(=O)NC3(C)CCCc4ncncc43)c2n1` (centres unmarked) [III-175], in that order: less than 10% and less than 30%.
For the compound `Cc1cc(C)n2ccc(C(=O)NC3CCCC(Oc4cccs4)C3)c2n1` (centres unmarked) [III-191], in series [2], the activation at 0.1 µM is greater than 20% and the activation at 1 µM was greater than 60%.
For `CCCOC1CC(CNC(=O)c2ccn3c(C)cc(C)nc23)C1` (centres unmarked) [III-239], in that order: less than 10% and less than 30%.
`Cc1cc(C)n2ccc(C(=O)NC3CCC(Oc4cc(C)on4)C3)c2n1` (centres unmarked) [III-243]: the activation at 0.1 µM in series [2] is less than 10%.
As to `Cc1cc(C)n2ccc(C(=O)NC3CCC(Oc4cc(C)on4)C3)c2n1` (centres unmarked) [III-244], the “Percent Gcase Activation, 1 μM Test Compound” value in series [2] was “+++ (Gcase activation greater than 60%)”.
In the case of `Cc1cc(C(F)(F)F)nc2c(C(=O)NC3(C)CCCc4ncncc43)ccn12` (centres unmarked) [III-250], in series [2], the activation at 0.1 µM is less than 10% and the activation at 1 µM was less than 30%.
`Cc1cc(C)n2ccc(C(=O)Nc3ccc4c(c3)OCO4)c2n1` [III-280] yielded a solubility in series [1] (in water) of 0.2 µg/mL (≈ 0.647 µM).
Still for that read-out and setting: the value for `Cc1cc(C)n2ccc(C(=O)Nc3ccc(N4CCCCC4)cc3)c2n1` [III-281] was less than 0.1 µg/mL.
In turn, `COCC#Cc1ccc(NC(=O)c2ccn3c(C)cc(C)nc23)cn1` [III-282] came in with a solubility in series [1] (in water) of 0.7 µg/mL (≈ 2.09 µM).

The solubility is the dissolved amount per volume that the medium holds. A high value points to a readily soluble substance.
